Reference: patent US11739077B2, “Small molecule inhibitors of ubiquitin specific protease 1 (USP1) and uses thereof” (Insilico Medicine IP Limited, priority 2021, dated 2023)

What was measured:
MDA-MB-436 cells = assay: MDA-MB-436 breast cancer cell proliferation assay (CellTiter-Glo); assay type: cell-based; conditions: Homo sapiens, 168 h, 7 days
Protocol: MDA-MB-436 cells were grown in Leibovitz's L-15 medium with 10 ug/ml insulin, 16 ug/ml glutathione, 10% FBS. Cells were passaged at subconfluence after trypsinization and maintained in incubators at 37° C. in a humidified atmosphere with 5% CO2.
Cell proliferation was determined using CellTiter-Glo® Luminescent Cell Viability Assay (Promega, #G7573). MDA-MB-436 cells were seeded in 384-well plates and allowed to attach for 24 h. Compounds were added into 384-well plate by ECHO, and incubated at 37° C. in a humidified atmosphere with 5% CO2. After 7 days, CellTiter-Glo was added into 384 well plates, contents were mixed on an orbital shaker at […] for 2 min before centrifuging the plate for 2 min at 1000 rpm. After incubation at RT for 30 min, luminescence was read on envision.

[1] = target: Human recombinant USP1/UAF1 (Homo sapiens (Human), UniProt O94782); assay: Enzymatic assay, USP1/UAF1 with Ubiquitin Rhodamine 110; assay type: biochemical; conditions: 2 nM USP1/UAF1, 500 nM Ubiquitin Rhodamine 110, 15 minutes preincubation at RT
Human recombinant USP1/UAF1, sequence (O94782 whole entry): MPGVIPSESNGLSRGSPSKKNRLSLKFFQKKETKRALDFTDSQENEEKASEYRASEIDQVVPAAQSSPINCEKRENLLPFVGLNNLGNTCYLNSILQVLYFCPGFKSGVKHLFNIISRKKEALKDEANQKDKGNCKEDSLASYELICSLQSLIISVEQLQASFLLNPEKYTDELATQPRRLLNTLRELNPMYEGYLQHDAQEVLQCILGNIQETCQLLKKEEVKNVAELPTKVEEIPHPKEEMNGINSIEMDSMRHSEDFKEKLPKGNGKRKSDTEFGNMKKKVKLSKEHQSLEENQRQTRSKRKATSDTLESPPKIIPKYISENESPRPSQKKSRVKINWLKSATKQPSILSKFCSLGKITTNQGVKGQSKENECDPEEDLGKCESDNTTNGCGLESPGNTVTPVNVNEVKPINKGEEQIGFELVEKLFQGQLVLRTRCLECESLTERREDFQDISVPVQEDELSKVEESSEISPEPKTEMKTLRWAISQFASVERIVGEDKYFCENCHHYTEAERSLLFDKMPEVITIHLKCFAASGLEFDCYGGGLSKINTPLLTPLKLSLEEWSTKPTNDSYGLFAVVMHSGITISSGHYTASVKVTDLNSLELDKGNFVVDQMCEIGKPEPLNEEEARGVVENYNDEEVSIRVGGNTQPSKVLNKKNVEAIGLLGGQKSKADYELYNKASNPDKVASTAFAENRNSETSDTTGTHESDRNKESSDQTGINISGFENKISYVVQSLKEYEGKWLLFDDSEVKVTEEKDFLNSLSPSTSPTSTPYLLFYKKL
Human recombinant USP1/UAF1, sequence (Q8TAF3 whole entry partner): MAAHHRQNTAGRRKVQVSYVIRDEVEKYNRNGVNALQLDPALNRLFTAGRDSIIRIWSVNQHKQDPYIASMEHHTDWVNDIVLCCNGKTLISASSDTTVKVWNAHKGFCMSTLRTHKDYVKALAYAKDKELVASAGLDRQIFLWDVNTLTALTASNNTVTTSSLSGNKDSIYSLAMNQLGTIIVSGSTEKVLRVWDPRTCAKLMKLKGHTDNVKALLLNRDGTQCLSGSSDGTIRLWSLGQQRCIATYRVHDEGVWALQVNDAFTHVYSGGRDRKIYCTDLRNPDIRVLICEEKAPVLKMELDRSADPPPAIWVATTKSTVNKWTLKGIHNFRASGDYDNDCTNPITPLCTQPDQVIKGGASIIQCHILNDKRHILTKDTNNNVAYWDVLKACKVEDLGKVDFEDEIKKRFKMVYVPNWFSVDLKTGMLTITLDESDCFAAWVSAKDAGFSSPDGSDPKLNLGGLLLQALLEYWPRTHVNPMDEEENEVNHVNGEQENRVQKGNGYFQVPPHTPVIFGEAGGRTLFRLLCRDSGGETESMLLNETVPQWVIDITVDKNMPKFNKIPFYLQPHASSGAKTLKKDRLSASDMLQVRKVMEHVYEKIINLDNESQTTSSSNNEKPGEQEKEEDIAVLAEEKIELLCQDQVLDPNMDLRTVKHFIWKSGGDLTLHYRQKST
Protocol: Human recombinant USP1/UAF1 expressed in baculovirus infected Sf21 cells were used (R&D, E-568-050). Test compound and/or vehicle was incubated with 2 nM of USP1/UAF1 in modified HEPES buffer pH 8.0 for 15 minutes at RT. The reaction was initiated by addition of 500 nM of Ubiquitin Rhodamine 110 (R&D, U-555-050) for kinetic reading. Slope change of fluorescence intensity was read spectrofluorimetrically at 485 nm/535 nm.

SMILES	IC50 (MDA-MB-436 cells)	IC50 [1]
CCn1nc(-c2c(OC)ncnc2C2CC2)c2c1CCN(c1ccc(-c3nc(C(F)(F)F)cn3C)cn1)C2 [Example 16, 3-(4-cyclopropyl-6-methoxypyrimidin-5-yl)-1-ethyl-5-(5-(1-methyl-4-(trifluoromethyl)-1H-imidazol-2-yl)pyridin-2-yl)-4,5,6,7-tetrahydro-1H-pyrazolo[4,3-c]pyridine]	50 to 1000 nM	50 to 1000 nM
COc1ncnc(C2CC2)c1-c1nn(C(F)F)c2c1CN(c1ccc(-c3nc(C(F)(F)F)cn3C)cn1)CC2 [Example 31, 3-(4-cyclopropyl-6-methoxypyrimidin-5-yl)-1-(difluoromethyl)-5-(5-(1-methyl-4-(trifluoromethyl)-1H-imidazol-2-yl)pyridin-2-yl)-4,5,6,7-tetrahydro-1H-pyrazolo[4,3-c]pyridine]	50 to 1000 nM	< 50 nM
COc1ncnc(C2CC2)c1-c1nn(C)c2c1CN(c1cnc(-c3nc(C(F)(F)F)cn3C)cn1)CC2 [Example 28, 3-(4-cyclopropyl-6-methoxypyrimidin-5-yl)-1-methyl-5-(5-(1-methyl-4-(trifluoromethyl)-1H-imidazol-2-yl)pyrazin-2-yl)-4,5,6,7-tetrahydro-1H-pyrazolo[4,3-c]pyridine]	< 50 nM	< 50 nM
COc1ncnc(C2CC2)c1-c1n[nH]c2c1CN(c1ccc(-c3nc(C(F)(F)F)cn3C(C)C)cn1)CC2 [Example 20, 3-(4-cyclopropyl-6-methoxypyrimidin-5-yl)-5-(5-(1-isopropyl-4-(trifluoromethyl)-1H-imidazol-2-yl)pyridin-2-yl)-4,5,6,7-tetrahydro-1H-pyrazolo[4,3-c]pyridine]	50 to 1000 nM	50 to 1000 nM
COc1ncnc(C2CC2)c1-c1nn(C)c2c1CN(c1ccc(-c3nc(C(F)(F)F)cn3C)c(F)c1)CC2 [Example 8, 3-(4-cyclopropyl-6-methoxypyrimidin-5-yl)-5-(3-fluoro-4-(1-methyl-4-(trifluoromethyl)-1H-imidazol-2-yl)phenyl)-1-methyl-4,5,6,7-tetrahydro-1H-pyrazolo[4,3-c]pyridine]	< 50 nM	< 50 nM
COc1ncnc(C2CC2)c1-c1nn(C)c2c1CN(c1ccc(-c3nc(C(F)(F)F)cn3C)cc1)CC2 [Example 3, 3-(4-cyclopropyl-6-methoxypyrimidin-5-yl)-1-methyl-5-(4-(1-methyl-4-(trifluoromethyl)-1H-imidazol-2-yl)phenyl)-4,5,6,7-tetrahydro-1H-pyrazolo[4,3-c]pyridine]	< 50 nM	< 50 nM
CC(C)c1ncccc1-c1nn(C)c2c1CN(c1ccc(-c3nc(C(F)(F)F)cn3C)cc1)CC2 [Example 1, 3-(2-isopropylpyridin-3-yl)-1-methyl-5-(4-(1-methyl-4-(trifluoromethyl)-1H-imidazol-2-yl)phenyl)-4,5,6,7-tetrahydro-1H-pyrazolo[4,3-c]pyridine]	< 50 nM	< 50 nM
COc1ncnc(C2CC2)c1-c1nn(C(F)F)c2c1CN(c1ccc(-c3nc(C(F)(F)F)cn3C(C)C)cn1)CC2 [Example 32, 3-(4-cyclopropyl-6-methoxypyrimidin-5-yl)-1-(difluoromethyl)-5-(5-(1-isopropyl-4-(trifluoromethyl)-1H-imidazol-2-yl)pyridin-2-yl)-4,5,6,7-tetrahydro-1H-pyrazolo[4,3-c]pyridine]	50 to 1000 nM	< 50 nM
COc1ncnc(C2CC2)c1-c1nn(C)c2c1CN(c1ccc(-c3nc(C(F)(F)F)cn3C)nc1)CC2 [Example 6, 3-(4-cyclopropyl-6-methoxypyrimidin-5-yl)-1-methyl-5-(6-(1-methyl-4-(trifluoromethyl)-1H-imidazol-2-yl)pyridin-3-yl)-4,5,6,7-tetrahydro-1H-pyrazolo[4,3-c]pyridine]	< 50 nM	< 50 nM
Cn1cc(C(F)(F)F)nc1-c1ccc(N2CCc3c(c(-c4cccnc4OC(F)F)nn3C)C2)cc1 [Example 24, 3-(2-(difluoromethoxy)pyridin-3-yl)-1-methyl-5-(4-(1-methyl-4-(trifluoromethyl)-1H-imidazol-2-yl)phenyl)-4,5,6,7-tetrahydro-1H-pyrazolo[4,3-c]pyridine]	50 to 1000 nM	< 50 nM
COc1ncnc(C2CC2)c1-c1nn(C)c2c1CN(c1ccc(-c3nc(C(F)(F)F)cn3C)cc1F)CC2 [Example 7, 3-(4-cyclopropyl-6-methoxypyrimidin-5-yl)-5-(2-fluoro-4-(1-methyl-4-(trifluoromethyl)-1H-imidazol-2-yl)phenyl)-1-methyl-4,5,6,7-tetrahydro-1H-pyrazolo[4,3-c]pyridine]	< 50 nM	< 50 nM
COc1ncnc(C2CC2)c1-c1nn(C)c2c1CN(c1ccc(-c3nc(C(F)(F)F)cn3C)cn1)CC2 [Example 5, 3-(4-cyclopropyl-6-methoxypyrimidin-5-yl)-1-methyl-5-(5-(1-methyl-4-(trifluoromethyl)-1H-imidazol-2-yl)pyridin-2-yl)-4,5,6,7-tetrahydro-1H-pyrazolo[4,3-c]pyridine]	< 50 nM	< 50 nM
[2H]C([2H])([2H])n1nc(-c2c(OC)ncnc2C2CC2)c2c1CCN(c1ccc(-c3nc(C(F)(F)F)cn3C)cc1)C2 [Example 17, 3-(4-cyclopropyl-6-methoxypyrimidin-5-yl)-1-(methyl-d3)-5-(4-(1-methyl-4-(trifluoromethyl)-1H-imidazol-2-yl)phenyl)-4,5,6,7-tetrahydro-1H-pyrazolo[4,3-c]pyridine]	< 50 nM	< 50 nM
[2H]C([2H])([2H])n1nc(-c2c(OC)ncnc2C2CC2)c2c1CCN(c1ccc(-c3nc(C(F)(F)F)cn3C(C)C)cn1)C2 [Example 11, 3-(4-cyclopropyl-6-methoxypyrimidin-5-yl)-5-(5-(1-isopropyl-4-(trifluoromethyl)-1H-imidazol-2-yl)pyridin-2-yl)-1-(methyl-d3)-4,5,6,7-tetrahydro-1H-pyrazolo[4,3-c]pyridine]	< 50 nM	< 50 nM
CC(C)c1ncncc1-c1nn(C)c2c1CN(c1ccc(-c3nc(C(F)(F)F)cn3C)cc1)CC2 [Example 2, 3-(4-isopropylpyrimidin-5-yl)-1-methyl-5-(4-(1-methyl-4-(trifluoromethyl)-1H-imidazol-2-yl)phenyl)-4,5,6,7-tetrahydro-1H-pyrazolo[4,3-c]pyridine]	50 to 1000 nM	50 to 1000 nM
Cc1ncnc(C2CC2)c1-c1nn(C)c2c1CN(c1ccc(-c3nc(C(F)(F)F)cn3C)cn1)CC2 [Example 13, 3-(4-cyclopropyl-6-methylpyrimidin-5-yl)-1-methyl-5-(5-(1-methyl-4-(trifluoromethyl)-1H-imidazol-2-yl)pyridin-2-yl)-4,5,6,7-tetrahydro-1H-pyrazolo[4,3-c]pyridine]	50 to 1000 nM	50 to 1000 nM
[2H]C([2H])([2H])n1nc(-c2c(OC)ncnc2C2CC2)c2c1CCN(c1ccc(-c3nc(C(F)(F)F)cn3C)c(F)c1)C2 [Example 30, 3-(4-cyclopropyl-6-methoxypyrimidin-5-yl)-5-(3-fluoro-4-(1-methyl-4-(trifluoromethyl)-1H-imidazol-2-yl)phenyl)-1-(methyl-d3)-4,5,6,7-tetrahydro-1H-pyrazolo[4,3-c]pyridine]	< 50 nM	< 50 nM
